For data set [1] the following is noted: DTA.
A short description of data set [2]: Molar enthalpy of transition or fusion. Conditions: DSC.

This note sets out measurements from the NIST ThermoML archive (doi:10.1016/j.jct.2013.12.016).

Numbers after ± are expanded uncertainties.

Turning to `CC[C@H](C)[C@H](NC(C)=O)C(=O)NC` (racemic) [N-acetyl-N'-methyl-DL-isoleucinamide], in data set [1] (Crystal), the Triple point temperature was determined as 482.02 ± 0.39 K. Further, the “Molar enthalpy of transition or fusion” value in data set [2] (Crystal) was determined as 6.48 ± 0.143 kcal/mol.

For the compound `CCCC(NC(C)=O)C(=O)NC` (racemic) [N-acetyl-N'-methyl-DL-norvalinamide], the Triple point temperature in data set [1] (Crystal) turned out to be 432.29 ± 0.39 K. The “Molar enthalpy of transition or fusion” value in data set [2] (Crystal) was determined as 6.27 ± 0.143 kcal/mol.

Consider `CNC(=O)C1CCCN1C(C)=O` (stereo unspecified) [1-acetyl-N-methylprolinamide], for which the Triple point temperature in data set [1] (Crystal) is on record as 378.12 ± 0.39 K. For the same compound, the “Molar enthalpy of transition or fusion” value in data set [2] (Crystal) was determined as 6.23 ± 0.139 kcal/mol.

`CNC(=O)CNC(C)=O` [2-acetamido-N-methylacetamide]: the Triple point temperature in data set [1] (Crystal) amounted to 430.73 ± 0.39 K. The “Molar enthalpy of transition or fusion” value in data set [2] (Crystal) came to 5.65 ± 0.129 kcal/mol.

With `CCC(NC(C)=O)C(=O)NC` (stereo unspecified) [2-acetamido-N-methylbutanamide], in data set [1] (Crystal), the Triple point temperature is 434.83 ± 0.4 K. Besides, the “Molar enthalpy of transition or fusion” value in data set [2] (Crystal) was found to be 5.91 ± 0.134 kcal/mol.

As for `CCCCC(NC(C)=O)C(=O)NC` (stereo unspecified) [2-acetamido-N-methylhexanamide], the Triple point temperature in data set [1] (Crystal) is given as 444 ± 0.39 K. The “Molar enthalpy of transition or fusion” value in data set [2] (Crystal) worked out at 8.21 ± 0.177 kcal/mol.

`CNC(=O)C(C)NC(C)=O` (stereo unspecified) [2-acetamido-N-methylpropanamide]: the Triple point temperature in data set [1] (Crystal 1) was found to be 411.9 ± 2 K; in data set [1] (Crystal 2), 368.43 ± 0.39 K. Moreover, the results for the “Molar enthalpy of transition or fusion” value in data set [2] (Crystal 1) and in data set [2] (Crystal 2) were 3.8 ± 0.115 kcal/mol and 1.84 ± 0.0765 kcal/mol, respectively.

Turning to `CNC(=O)[C@@H]1CCCN1C(C)=O` [(2S)-1-acetyl-N-methyl-2-pyrrolidinecarboxamide], the Triple point temperature in data set [1] (Crystal) is given as 375.85 ± 0.39 K. Moreover, in data set [2] (Crystal), the “Molar enthalpy of transition or fusion” value came out at 5.96 ± 0.134 kcal/mol.

Regarding `CC[C@H](C)[C@H](NC(C)=O)C(=O)NC` [(2S,3S)-2-acetamido-N,3-dimethylpentanamide], in data set [1] (Crystal), the Triple point temperature came out at 525.72 ± 0.39 K. For the same compound, the “Molar enthalpy of transition or fusion” value in data set [2] (Crystal) came to 9.11 ± 0.21 kcal/mol.

`CNC(=O)[C@H](CC(C)C)NC(C)=O` [(S)-2-acetamido-N,4-dimethylpentanamide]: the Triple point temperature in data set [1] (Crystal) came out at 438.2 ± 0.39 K. The “Molar enthalpy of transition or fusion” value in data set [2] (Crystal) came out at 5.54 ± 0.127 kcal/mol.

Consider `CNC(=O)[C@H](C)NC(C)=O` [(S)-2-acetamido-N-methylpropanamide], for which the values for the Triple point temperature in data set [1] (Crystal 1) and in data set [1] (Crystal 2) were 454.8 ± 0.39 K and 395.07 ± 0.41 K, respectively. For the same compound, the entries for the “Molar enthalpy of transition or fusion” value in data set [2] (Crystal 1) and in data set [2] (Crystal 2) were 5.94 ± 0.134 kcal/mol and 1.34 ± 0.0454 kcal/mol, respectively.
